*1 amine or outer side, *2 acyl side, *3 side chain or, on linkers, in order; H or OH if unused. Where a SMILES comes first, the peptide text is derived from it. Bridges are numbered along the chain shown (N, C = ends). [ ]: non-standard residue; d: D form. The star is where a group is joined. DOTA = O=C(O)CN1CCN(CC(=O)O)CCN(CC(=O)*)CCN(CC(=O)O)CC1; Pro(cis-4-F) = O=C(O)[C@@H]1C[C@H](F)CN1; Pro(4R-NH2) = N[C@H]1CN[C@H](C(=O)O)C1; Glutaryl = O=C(CCCC(=O)[*:2])[*:1]; Hyp = O=C(O)[C@@H]1C[C@@H](O)CN1; hPhe = N[C@@H](CCc1ccccc1)C(=O)O; tBuAla = CC(C)(C)C[C@H](N)C(=O)O; Pentanoyl(4-Me) = CC(C)CCC(=O)*; 2Thi = N[C@@H](Cc1cccs1)C(=O)O; Cha = N[C@@H](CC1CCCCC1)C(=O)O; Cit = NC(=O)NCCC[C@H](N)C(=O)O; NMeL = CN[C@@H](CC(C)C)C(=O)O; Butoxycarbonyl = CCCCOC(=O)*; hSer = N[C@@H](CCO)C(=O)O; Thz = O=C(O)[C@@H]1CSCN1; Nva = CCC[C@H](N)C(=O)O; Hexanoyl = CCCCCC(=O)*; Pentanoyl = CCCCC(=O)*
Assays:
[1] = molecular target: T1, uPAR-expressing HEC-265 human endometrial adenocarcinoma cells (Homo sapiens, UniProt Q03405); assay: Competitive FACS binding assay; settings: pIC50 category of FACS binding
T1 construct: Cell surface uPAR-expressing HEC-265 human endometrial adenocarcinoma cells; host or cells: HEC-265
T1 sequence (Q03405 23-335): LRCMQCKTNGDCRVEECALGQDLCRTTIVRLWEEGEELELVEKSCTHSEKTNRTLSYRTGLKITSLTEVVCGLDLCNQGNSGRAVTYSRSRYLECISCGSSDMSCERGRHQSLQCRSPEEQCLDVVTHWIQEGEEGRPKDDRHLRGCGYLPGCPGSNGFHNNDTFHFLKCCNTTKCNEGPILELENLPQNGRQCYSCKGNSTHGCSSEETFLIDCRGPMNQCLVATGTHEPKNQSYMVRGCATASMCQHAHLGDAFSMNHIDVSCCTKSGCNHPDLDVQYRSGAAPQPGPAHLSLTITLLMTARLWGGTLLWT
Procedure, shortened: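 Competitive displacement of a 10 nM biotinylated peptide from HEC-265 cells (1 h, 4 °C, PBS/1% BSA), detected via APC-streptavidin by flow cytometry. pIC50 from four-parameter logistic fit of median fluorescence versus concentration.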

human uPAR (uPAR-Fc) = molecular target: T2, human uPAR (uPAR-Fc) (Homo sapiens, UniProt Q03405); assay: Surface plasmon resonance (SPR) assay, single cycle kinetics; type: binding; settings: pKD category for uPAR SPR activity assay; uPAR-Fc on Protein A-Chip, single cycle kinetics, 25°C; read-out: pKD CAT (converted)
T2 construct: comprising amino acids Leu23-Arg303 according to UniProt entry Q03405.1; purchased R&D Systems 10378-UK-100
T2 sequence (Q03405 23-303): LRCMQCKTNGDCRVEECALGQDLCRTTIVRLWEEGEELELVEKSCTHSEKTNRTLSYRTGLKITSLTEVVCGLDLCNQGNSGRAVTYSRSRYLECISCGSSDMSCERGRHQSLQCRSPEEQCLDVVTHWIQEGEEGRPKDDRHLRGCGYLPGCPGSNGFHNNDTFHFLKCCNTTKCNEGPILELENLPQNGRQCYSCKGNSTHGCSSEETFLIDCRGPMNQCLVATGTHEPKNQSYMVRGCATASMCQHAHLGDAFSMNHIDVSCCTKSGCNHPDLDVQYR
Procedure, shortened: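 uPAR-Fc (Leu23-Arg303 extracellular domains, human IgG1 Fc) captured on Protein A chip to ~2000 RU; single-cycle kinetics at 25°C in HEPES running buffer pH 7.4 with 0.1% DMSO. KD from double-referenced sensorgrams fitted to 1:1 Langmuir model, reported as pKD.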

SMILES | IC50 [1] [nM] | Kd (human uPAR (uPAR-Fc)) [nM]
CCCCOC(=O)N[C@H]1CSSC[C@@H](C(N)=O)NC(=O)[C@H](CCC)NC(=O)[C@H]([C@@H](C)CC)NC(=O)[C@@H]2C[C@@H](O)CN2C(=O)[C@@H]2C[C@H](F)CN2C(=O)[C@H](Cc2ccccc2)NC(=O)[C@H](Cc2ccc(O)cc2)NC(=O)[C@H](CCC(N)=O)NC(=O)[C@H]([C@@H](C)O)NC1=O [UPAR-358, Butoc-[Cys-Thr-Gln-Tyr-Phe-4Cfp-Hyp-Ile-Nva-Cys]-NH2] (Butoxycarbonyl-CTQYF[Pro(cis-4-F)][Hyp]I[Nva]C-NH2; disulfide 1-10) | ≤ 10 | < 1.58
CC[C@H](C)[C@@H]1NC(=O)[C@@H](C)NC(=O)[C@@H]2CCCN2C(=O)[C@H](Cc2ccccc2)NC(=O)[C@H](Cc2ccc(O)cc2)NC(=O)[C@H](CCC(N)=O)NC(=O)[C@H](CCCNC(N)=O)NC(=O)[C@@H](NC(=O)CCCC(=O)O)CSSC[C@@H](C(N)=O)NC(=O)[C@H](CC(C)C)NC1=O [UPAR-359, Glutar-[Cys-Cit-Gln-Tyr-Phe-Pro-ala-Ile-Leu-Cys]-NH2] (Glutaryl-C[Cit]QYFP[dA]ILC-NH2; disulfide 1-10) | ≥ 126 | > 100
CCCCC(=O)N[C@H]1CSSC[C@@H](C(N)=O)NC(=O)[C@H](CCC)NC(=O)[C@H]([C@@H](C)CC)NC(=O)[C@@H]2C[C@@H](O)CN2C(=O)[C@@H]2CCCN2C(=O)[C@H](Cc2cccs2)NC(=O)[C@H](Cc2ccc(O)cc2)NC(=O)[C@H](CCCCNC(=O)CN2CCN(CC(=O)O)CCN(CC(=O)O)CCN(CC(=O)O)CC2)NC(=O)[C@H](CCCNC(N)=O)NC1=O [UPAR-360, Pent-[Cys-Cit-Lys(DOTA)-Tyr-Thi-Pro-Hyp-Ile-Nva-Cys]-NH2] (Pentanoyl-C[Cit]K(DOTA)Y[2Thi]P[Hyp]I[Nva]C-NH2; disulfide 1-10) | ≤ 10 | < 1.58
CCCCC(=O)N[C@H]1CSSC[C@@H](C(N)=O)NC(=O)[C@H](CCC)NC(=O)[C@H]([C@@H](C)CC)NC(=O)[C@@H]2C[C@@H](O)CN2C(=O)[C@@H]2CCCN2C(=O)[C@H](Cc2ccccc2)NC(=O)[C@H](Cc2ccc(O)cc2)NC(=O)[C@H](CCC(N)=O)NC(=O)[C@@H]2CCCN2C1=O [UPAR-361, Pent-[Cys-Pro-Gln-Tyr-Phe-Pro-Hyp-Ile-Nva-Cys]-NH2] (Pentanoyl-CPQYFP[Hyp]I[Nva]C-NH2; disulfide 1-10) | ≤ 10 | < 1.58
CCCCC(=O)N[C@H]1CSSC[C@@H](C(N)=O)NC(=O)[C@H](CC(C)C)NC(=O)[C@H]([C@@H](C)CC)NC(=O)[C@@H](C)NC(=O)[C@@H]2CCCN2C(=O)[C@H](Cc2ccccc2)NC(=O)[C@H](Cc2ccc(O)cc2)NC(=O)[C@H](CCC(N)=O)NC(=O)[C@H](CCCNC(N)=O)NC1=O [UPAR-362, Pent-[Cys-Cit-Gln-Tyr-Phe-Pro-ala-Ile-Leu-Cys]-NH2] (Pentanoyl-C[Cit]QYFP[dA]ILC-NH2; disulfide 1-10) | ≤ 10 | < 1.58
CCCCCC(=O)N[C@@H](CC(=O)O)C(=O)N[C@@H](CC(C)C)C(=O)N[C@H]1CSSC[C@@H](C(N)=O)NC(=O)[C@H](CC(C)C)NC(=O)[C@H]([C@@H](C)CC)NC(=O)[C@H](C)NC(=O)[C@@H]2CCCN2C(=O)[C@H](Cc2ccccc2)NC(=O)[C@H](Cc2ccc(O)cc2)NC(=O)[C@H](CCSC)NC(=O)[C@H](CCCNC(=N)N)NC1=O [UPAR-363, Hex-Asp-Leu-[Cys-Arg-Met-Tyr-Phe-Pro-Ala-Ile-Leu-Cys]-NH2] (Hexanoyl-DLCRMYFPAILC-NH2; disulfide 3-12) | ≤ 10 | < 1.58
CCCCC(=O)N[C@H]1CSSC[C@@H](C(N)=O)NC(=O)[C@H](CCC)NC(=O)[C@H]([C@@H](C)CC)NC(=O)[C@@H]2C[C@@H](O)CN2C(=O)[C@@H]2C[C@H](F)CN2C(=O)[C@H](Cc2ccccc2)NC(=O)[C@H](Cc2ccc(O)cc2)NC(=O)[C@H](CCCCNC(=O)CN2CCN(CC(=O)O)CCN(CC(=O)O)CCN(CC(=O)O)CC2)NC(=O)[C@H](CCCNC(N)=O)NC1=O [UPAR-365, Pent-[Cys-Cit-Lys(DOTA)-Tyr-Phe-4Cfp-Hyp-Ile-Nva-Cys]-NH2] (Pentanoyl-C[Cit]K(DOTA)YF[Pro(cis-4-F)][Hyp]I[Nva]C-NH2; disulfide 1-10) | ≤ 10 | < 1.58
CCCCC(=O)N[C@H]1CSSC[C@@H](C(N)=O)NC(=O)[C@H](CCC)NC(=O)[C@H]([C@@H](C)CC)NC(=O)[C@@H]2C[C@@H](O)CN2C(=O)[C@@H]2CCCN2C(=O)[C@H](Cc2ccccc2)NC(=O)[C@H](CCc2ccccc2)NC(=O)[C@H](CCC(N)=O)NC(=O)[C@H](CCCNC(=N)N)NC1=O [UPAR-366, Pent-[Cys-Arg-Gln-Hfe-Phe-Pro-Hyp-Ile-Nva-Cys]-NH2] (Pentanoyl-CRQ[hPhe]FP[Hyp]I[Nva]C-NH2; disulfide 1-10) | 12.6 to 31.6 | 10 to 100
CC[C@H](C)[C@@H]1NC(=O)[C@@H](CCCCNC(=O)CN2CCN(CC(=O)O)CCN(CC(=O)O)CCN(CC(=O)O)CC2)NC(=O)[C@@H]2CCCN2C(=O)[C@H](Cc2ccccc2)NC(=O)[C@H](Cc2ccc(O)cc2)NC(=O)[C@H](CCC(N)=O)NC(=O)[C@H](CCCNC(=N)N)NC(=O)[C@@H](NC(=O)CCC(C)C)CSSC[C@@H](C(N)=O)NC(=O)[C@H](CC(C)C)NC1=O [UPAR-367, iHex-[Cys-Arg-Gln-Tyr-Phe-Pro-lys(DOTA)-Ile-Leu-Cys]-NH2] ({Pentanoyl(4-Me)}-CRQYFP[dK](DOTA)ILC-NH2; disulfide 1-10) | ≤ 10 | 10 to 100
CCCCOC(=O)N[C@H]1CSSC[C@@H](C(N)=O)NC(=O)[C@H](CCO)NC(=O)[C@H]([C@@H](C)CC)NC(=O)[C@@H]2C[C@@H](O)CN2C(=O)[C@@H]2C[C@H](F)CN2C(=O)[C@H](Cc2ccccc2)NC(=O)[C@H](Cc2ccc(O)cc2)NC(=O)[C@H](CCCCNC(=O)CN2CCN(CC(=O)O)CCN(CC(=O)O)CCN(CC(=O)O)CC2)NC(=O)[C@H]([C@@H](C)O)NC1=O [UPAR-368, Butoc-[Cys-Thr-Lys(DOTA)-Tyr-Phe-4Cfp-Hyp-Ile-Hse-Cys]-NH2] (Butoxycarbonyl-CTK(DOTA)YF[Pro(cis-4-F)][Hyp]I[hSer]C-NH2; disulfide 1-10) | ≤ 10 | 10 to 100
CCCCC(=O)N[C@H]1CSSC[C@@H](C(N)=O)NC(=O)[C@H](CCC)NC(=O)[C@H](CC(C)(C)C)NC(=O)[C@@H]2C[C@@H](O)CN2C(=O)[C@@H]2CCCN2C(=O)[C@H](Cc2ccccc2)NC(=O)[C@H](Cc2ccc(O)cc2)NC(=O)[C@H](CCC(N)=O)NC(=O)[C@H](CCCNC(=N)N)NC1=O [UPAR-370, Pent-[Cys-Arg-Gln-Tyr-Phe-Pro-Hyp-Npg-Nva-Cys]-NH2] (Pentanoyl-CRQYFP[Hyp][tBuAla][Nva]C-NH2; disulfide 1-10) | ≤ 10 | < 1.58
CC[C@H](C)[C@@H]1NC(=O)[C@@H]2C[C@@H](O)CN2C(=O)[C@@H]2CCCN2C(=O)[C@H](Cc2ccccc2)NC(=O)[C@H](Cc2ccc(O)cc2)NC(=O)[C@H](CCC(N)=O)NC(=O)[C@H](CCCNC(N)=O)NC(=O)[C@@H](NC(=O)[C@H](CC(C)C)NC(=O)CN2CCN(CC(=O)O)CCN(CC(=O)O)CCN(CC(=O)O)CC2)CSSC[C@@H](C(N)=O)NC(=O)[C@H](CC(C)C)N(C)C1=O [UPAR-371, DOTA-Leu-[Cys-Cit-Gln-Tyr-Phe-Pro-Hyp-Ile-Nml-Cys]-NH2] ({DOTA}-LC[Cit]QYFP[Hyp]I[NMeL]C-NH2; disulfide 2-11) | ≥ 126 | > 100
CCC[C@@H]1NC(=O)[C@H]([C@@H](C)CC)NC(=O)[C@@H]2C[C@@H](O)CN2C(=O)[C@@H]2CCCN2C(=O)[C@H](Cc2ccccc2)NC(=O)[C@H](Cc2ccc(O)cc2)NC(=O)[C@H](CCC(N)=O)NC(=O)[C@H](CCCNC(=N)N)NC(=O)[C@@H](NC(=O)[C@H](CC2CCCCC2)NC(C)=O)CSSC[C@@H](C(N)=O)NC1=O [UPAR-372, Ac-Cha-[Cys-Arg-Gln-Tyr-Phe-Pro-Hyp-Ile-Nva-Cys]-NH2] (Ac-[Cha]CRQYFP[Hyp]I[Nva]C-NH2; disulfide 2-11) | ≤ 10 | < 1.58
CCCCC(=O)N[C@H]1CSSC[C@@H](C(N)=O)NC(=O)[C@H](CCC)NC(=O)[C@H]([C@@H](C)CC)NC(=O)[C@@H]2C[C@@H](O)CN2C(=O)[C@@H]2CCCN2C(=O)[C@H](Cc2ccccc2)NC(=O)[C@H](CC2CCCCC2)NC(=O)[C@H](CCC(N)=O)NC(=O)[C@H](CCCNC(=N)N)NC1=O [UPAR-373, Pent-[Cys-Arg-Gln-Cha-Phe-Pro-Hyp-Ile-Nva-Cys]-NH2] (Pentanoyl-CRQ[Cha]FP[Hyp]I[Nva]C-NH2; disulfide 1-10) | ≤ 10 | < 1.58
CC[C@H](C)[C@@H]1NC(=O)[C@@H](C)NC(=O)[C@@H]2CSCN2C(=O)[C@H](Cc2ccccc2)NC(=O)[C@H](Cc2ccc(O)cc2)NC(=O)[C@H](CCC(N)=O)NC(=O)[C@H](CCCNC(N)=O)NC(=O)[C@@H](NC(=O)CCC(C)C)CSSC[C@@H](C(N)=O)NC(=O)[C@H](CC(C)C)NC1=O [UPAR-375, iHex-[Cys-Cit-Gln-Tyr-Phe-Eaz-ala-Ile-Leu-Cys]-NH2] ({Pentanoyl(4-Me)}-C[Cit]QYF[Thz][dA]ILC-NH2; disulfide 1-10) | ≤ 10 | < 1.58
CCCCC(=O)N[C@H]1CSSC[C@@H](C(N)=O)NC(=O)[C@H](CCC)NC(=O)[C@H]([C@@H](C)CC)NC(=O)[C@@H]2C[C@@H](N)CN2C(=O)[C@@H]2CCCN2C(=O)[C@H](Cc2ccccc2)NC(=O)[C@H](Cc2ccc(O)cc2)NC(=O)[C@H](CCCCNC(=O)CN2CCN(CC(=O)O)CCN(CC(=O)O)CCN(CC(=O)O)CC2)NC(=O)[C@H](CCCNC(N)=O)NC1=O [UPAR-377, Pent-[Cys-Cit-Lys(DOTA)-Tyr-Phe-Pro-Tap-Ile-Nva-Cys]-NH2] (Pentanoyl-C[Cit]K(DOTA)YFP[Pro(4R-NH2)]I[Nva]C-NH2; disulfide 1-10) | ≤ 10 | < 1.58

Source: EP4610269A1, “UROKINASE PLASMINOGEN ACTIVATOR SURFACE RECEPTOR (UPAR) LIGANDS FOR DIAGNOSTIC OR THERAPEUTIC USE” (3B Pharmaceuticals GmbH, priority 2024, dated 2025)
